In US20230233569A1 (Revolution Medicines, Inc., priority 2020, published 2023):
Values joined by “and” are separate entries in the source; they are usually repeats but may differ in a detail not shown here. Identical values can stand only once. Like-named read-outs stand apart in the source and are kept apart here.

Columns and labels:
NCI-H358 (K-Ras G12C) = assay: CellTiter-Glo cell viability assay, 5-day treatment; format: cell-based; details: Homo sapiens, NCI-H358, 120 h, 5-day treatment; read-out: H358 Cell Viability assay data (K-Ras G12C, IC50)
In short: (§1)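 Compounds were dispensed directly onto seeded cells and incubated for 5 days, then plates were equilibrated to room temperature for about 30 minutes before luminescence reading. Signals were expressed as percent of the mean DMSO control and fitted with a four-parameter logistic curve.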

Capan-1 (K-Ras G12V) = assay: as above; format: cell-based; details: Homo sapiens, CAPAN-1, 120 h, 5-day treatment; read-out: Capan-1 Cell Viability assay data (K-Ras G12V, IC50)
In short: as §1

KRAS G12S = KRAS G12S (Homo sapiens, UniProt P01116+P62937, G12S); assay: Disruption of BRAF RBD interaction with Ras (FRET / MOA assay, with Cyclophilin A); format: biochemical
In short: (§2)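 First, compounds at a ten-point threefold dilution series (highest final concentration 30 μM) were incubated with nucleotide-loaded K-Ras, Cyclophilin A and BRAF RBD for 3 h at 25 °C. Next, detection antibodies were added for 1.5 h. Finally, IC50 was calculated from TR-FRET ratio decreases against DMSO controls.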

KRAS G13D = KRAS G13D (Homo sapiens, UniProt P01116+P62937, G13D); assay: as above; format: biochemical
In short: as §2

KRAS WT = KRAS WT (Homo sapiens, UniProt P01116+P62937); assay: as above; format: biochemical
In short: as §2

NRAS G12C = NRAS G12C (Homo sapiens, UniProt P01111+P62937, G12C); assay: as above; format: biochemical
KRAS G13C = KRAS G13C (Homo sapiens, UniProt P01116+P62937, G13C); assay: as above; format: biochemical
In short: as §2

KRAS G12C = KRAS G12C (Homo sapiens, UniProt P01116+P62937, G12C); assay: as above; format: biochemical
In short: as §2

KRAS G12V = KRAS G12V (Homo sapiens, UniProt P01116+P62937, G12V); assay: as above; format: biochemical
In short: as §2

KRAS G12D = KRAS G12D (Homo sapiens, UniProt P01116+P62937, G12D); assay: as above; format: biochemical
In short: as §2

[1] = read-out: KRAS G12S FRET data, IC50
[2] = KRAS G13D, read-out: KRAS G13D FRET data IC50
[3] = KRAS WT, read-out: KRAS WT FRET data IC50
[4] = NRAS G12C, read-out: NRAS G12C FRET data IC50
[5] = read-out: KRAS G13C FRET data, IC50
[6] = read-out: KRAS G12C FRET data, IC50
[7] = KRAS G12V, read-out: KRAS G12V FRET data IC50
[8] = read-out: KRAS G12D FRET data, IC50

Sequence of KRAS G12S (P01116 1-169 isoform P01116-2 G12S limits assumed): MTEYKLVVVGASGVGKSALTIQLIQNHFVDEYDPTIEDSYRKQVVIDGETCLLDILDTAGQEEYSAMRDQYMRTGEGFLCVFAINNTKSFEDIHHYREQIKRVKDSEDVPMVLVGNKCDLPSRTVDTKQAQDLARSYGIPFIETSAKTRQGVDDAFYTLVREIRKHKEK
Sequence of KRAS G12S (P62937 whole entry): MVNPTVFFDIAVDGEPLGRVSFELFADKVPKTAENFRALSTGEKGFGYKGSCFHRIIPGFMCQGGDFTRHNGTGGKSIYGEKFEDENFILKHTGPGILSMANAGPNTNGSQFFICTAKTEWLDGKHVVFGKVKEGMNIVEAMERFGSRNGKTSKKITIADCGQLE
Sequence of KRAS G13C (P01116 1-169 isoform P01116-2 G13C): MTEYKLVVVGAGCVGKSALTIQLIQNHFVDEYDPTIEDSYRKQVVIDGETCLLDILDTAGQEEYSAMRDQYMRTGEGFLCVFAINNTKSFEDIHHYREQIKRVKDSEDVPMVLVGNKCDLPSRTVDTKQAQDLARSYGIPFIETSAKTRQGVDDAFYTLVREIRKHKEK
Sequence of KRAS G13C (P62937 whole entry): as the sequence (P62937 whole entry) above
Sequence of KRAS G12C (P01116 1-169 isoform P01116-2 G12C): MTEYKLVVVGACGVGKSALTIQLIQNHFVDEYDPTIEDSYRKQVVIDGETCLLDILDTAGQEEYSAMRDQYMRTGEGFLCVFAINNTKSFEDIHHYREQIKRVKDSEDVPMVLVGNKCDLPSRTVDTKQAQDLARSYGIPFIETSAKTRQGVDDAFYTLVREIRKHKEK
Sequence of KRAS G12C (P62937 whole entry): as the sequence (P62937 whole entry) above
Sequence of KRAS G12V (P01116 1-169 isoform P01116-2 G12V limits assumed): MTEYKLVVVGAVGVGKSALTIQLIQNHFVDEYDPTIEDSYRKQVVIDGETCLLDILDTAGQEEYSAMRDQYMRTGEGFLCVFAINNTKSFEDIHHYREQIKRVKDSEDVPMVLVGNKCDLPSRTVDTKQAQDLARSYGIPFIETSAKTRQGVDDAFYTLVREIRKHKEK
Sequence of KRAS G12V (P62937 whole entry): as the sequence (P62937 whole entry) above
Sequence of KRAS G13D (P01116 1-169 isoform P01116-2 G13D limits assumed): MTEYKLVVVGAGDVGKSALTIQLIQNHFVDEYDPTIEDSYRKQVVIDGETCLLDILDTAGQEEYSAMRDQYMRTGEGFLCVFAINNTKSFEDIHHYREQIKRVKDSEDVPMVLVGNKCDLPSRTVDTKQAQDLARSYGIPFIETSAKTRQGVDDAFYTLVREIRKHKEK
Sequence of KRAS G13D (P62937 whole entry): as the sequence (P62937 whole entry) above
Sequence of KRAS G12D (P01116 1-169 isoform P01116-2 G12D limits assumed): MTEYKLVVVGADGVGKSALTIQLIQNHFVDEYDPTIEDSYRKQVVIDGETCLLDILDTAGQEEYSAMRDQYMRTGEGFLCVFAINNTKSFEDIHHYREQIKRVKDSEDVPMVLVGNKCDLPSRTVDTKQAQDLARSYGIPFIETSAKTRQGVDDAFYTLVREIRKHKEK
Sequence of KRAS G12D (P62937 whole entry): as the sequence (P62937 whole entry) above
Sequence of NRAS G12C (P01111 whole entry G12C): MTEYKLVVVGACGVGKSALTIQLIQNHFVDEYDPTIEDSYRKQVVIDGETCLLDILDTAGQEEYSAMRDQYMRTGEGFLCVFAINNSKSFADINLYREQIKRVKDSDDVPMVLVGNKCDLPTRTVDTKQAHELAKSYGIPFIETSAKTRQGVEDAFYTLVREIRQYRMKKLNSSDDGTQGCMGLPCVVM
Sequence of NRAS G12C (P62937 whole entry): as the sequence (P62937 whole entry) above
Sequence of KRAS WT (P01116 1-169 isoform P01116-2 limits assumed): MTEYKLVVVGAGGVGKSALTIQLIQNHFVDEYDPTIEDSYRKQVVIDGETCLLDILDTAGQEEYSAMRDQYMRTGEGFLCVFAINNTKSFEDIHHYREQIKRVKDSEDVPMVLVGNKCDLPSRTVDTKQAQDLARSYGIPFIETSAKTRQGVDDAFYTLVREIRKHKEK
Sequence of KRAS WT (P62937 whole entry): as the sequence (P62937 whole entry) above

IC50 (NCI-H358 (K-Ras G12C))	IC50 (KRAS G12S; [1])	IC50 (KRAS G13D; [2])	IC50 (KRAS WT; [3])	IC50 (NRAS G12C; [4])	IC50 (KRAS G13C; [5])	IC50 (KRAS G12C; [6])	IC50 (KRAS G12V; [7])	IC50 (KRAS G12D; [8])	IC50 (KRAS G12S; KRAS G12S FRET data, IC50)	IC50 (KRAS G13D; KRAS G13D FRET data IC50, KRAS G13D)	IC50 (KRAS WT; KRAS WT FRET data IC50, KRAS WT)	IC50 (NRAS G12C; NRAS G12C FRET data IC50, NRAS G12C)	IC50 (KRAS G13C; KRAS G13C FRET data, IC50)	IC50 (KRAS G12C; KRAS G12C FRET data, IC50)	IC50 (KRAS G12V; KRAS G12V FRET data IC50, KRAS G12V)	IC50 (KRAS G12D; KRAS G12D FRET data, IC50)	SMILES	IC50 (Capan-1 (K-Ras G12V))
1000 to 10000 nM	–	–	–	–	–	–	–	–	100 to 1000 nM	100 to 1000 nM	100 to 1000 nM	100 to 1000 nM	100 to 1000 nM	100 to 1000 nM	100 to 1000 nM	1000 to 10000 nM	CCn1c(-c2cnccc2COC)c2c3cc(ccc31)-c1cc(O)cc(c1)C[C@H](NC(=O)[C@H](C(C)C)N(C)C(=O)CO)C(=O)N1CCC[C@H](N1)C(=O)OCC(C)(C)C2 [Example A43, (2S)—N-[(8S,14S)-22-ethyl-4-hydroxy-21-[4-(methoxymethyl)pyridin-3-yl]-18,18-dimethyl-9,15-dioxo-16-oxa-10,22,28-triazapentacyclo[18.5.2.1^2,6.1^10,14.0^23,27]nonacosa-1(26),2,4,6(29),20,23(27),24-heptaen-8-yl]-2-(2-hydroxy-N-methylacetamido)-3-methylbutanamide]	1000 to 10000 nM
10 to 100 nM	10 to 100 nM	100 to 1000 nM	10 to 100 nM	10 to 100 nM	10 to 100 nM	10 to 100 nM	10 to 100 nM	100 to 1000 nM	–	–	–	–	–	–	–	–	CCn1c(-c2cccnc2[C@H](C)OC)c2c3cc(ccc31)-c1cc(O)cc(c1)C[C@H](NC(=O)[C@H](C(C)C)N(C)C(=O)[C@@H]1C[C@H]1C)C(=O)N1CCC[C@H](N1)C(=O)OCC(C)(C)C2 [Example A147]	100 to 1000 nM
1000 to 10000 nM	10 to 100 nM	10 to 100 nM	10 to 100 nM	10 to 100 nM	10 to 100 nM	10 to 100 nM	100 to 1000 nM	10 to 100 nM	–	–	–	–	–	–	–	–	CCn1c(-c2cccnc2[C@H](C)OC)c2c3cc(ccc31)-c1cc(O)cc(c1)C[C@H](NC(=O)[C@H](C(C)C)N(C)C(=O)C1CC13CCNC3)C(=O)N1CCC[C@H](N1)C(=O)OCC(C)(C)C2 (some centres unmarked) [Example A148]	1000 to 10000 nM

More lines, now with the values behind:

SMILES	IC50 (NCI-H358 (K-Ras G12C))	IC50 (KRAS G12S; [1])	IC50 (KRAS G13D; [2])	IC50 (KRAS WT; [3])	IC50 (NRAS G12C; [4])	IC50 (KRAS G13C; [5])	IC50 (KRAS G12C; [6])	IC50 (KRAS G12V; [7])	IC50 (KRAS G12D; [8])	IC50 (KRAS G12S; KRAS G12S FRET data, IC50)	IC50 (KRAS G13D; KRAS G13D FRET data IC50, KRAS G13D)	IC50 (KRAS WT; KRAS WT FRET data IC50, KRAS WT)	IC50 (NRAS G12C; NRAS G12C FRET data IC50, NRAS G12C)	IC50 (KRAS G13C; KRAS G13C FRET data, IC50)	IC50 (KRAS G12C; KRAS G12C FRET data, IC50)	IC50 (KRAS G12V; KRAS G12V FRET data IC50, KRAS G12V)	IC50 (KRAS G12D; KRAS G12D FRET data, IC50)	IC50 (Capan-1 (K-Ras G12V))
CCn1c(-c2cnccc2COC)c2c3cc(ccc31)-c1cc(O)cc(c1)C[C@H](NC(=O)[C@H](C(C)C)N(C)C(=O)C1C[C@@H]1C)C(=O)N1CCC[C@H](N1)C(=O)OCC(C)(C)C2 (some centres unmarked) [Example A19]	100 to 1000 nM	100 to 1000 nM	100 to 1000 nM	100 to 1000 nM	100 to 1000 nM	100 to 1000 nM	10 to 100 nM	100 to 1000 nM	1000 to 10000 nM	–	–	–	–	–	–	–	–	100 to 1000 nM
CCn1c(-c2cccnc2[C@H](C)OC)c2c3cc(ccc31)-c1cc(O)cc(c1)C[C@H](NC(=O)[C@H](C(C)C)N(C)C(=O)C1NCCC1C(C)C)C(=O)N1CCC[C@H](N1)C(=O)OCC(C)(C)C2 (some centres unmarked) [Example A227]	1000 to 10000 nM	100 to 1000 nM and 10 to 100 nM	10 to 100 nM	100 to 1000 nM and 10 to 100 nM	100 to 1000 nM	10 to 100 nM	100 to 1000 nM and 10 to 100 nM	100 to 1000 nM and 1000 to 10000 nM	100 to 1000 nM and 10 to 100 nM	–	–	–	–	–	–	–	–	> 10000 nM
CCN(C(=O)N(C)[C@H](C(=O)N[C@H]1Cc2nc(cs2)-c2ccc3c(c2)c(c(-c2cccnc2[C@H](C)OC)n3CC)CC(C)(C)COC(=O)[C@@H]2CCCN(N2)C1=O)C(C)C)C(C)C [Example A333]	10 to 100 nM	100 to 1000 nM	100 to 1000 nM	10 to 100 nM	10 to 100 nM	100 to 1000 nM	10 to 100 nM	100 to 1000 nM	100 to 1000 nM	–	–	–	–	–	–	–	–	100 to 1000 nM
CCn1c(-c2cnccc2COC)c2c3cc(ccc31)-c1cc(O)cc(c1)C[C@H](NC(=O)[C@H](C(C)C)N(C)C(=O)[C@@H]1CCCN(C)C1)C(=O)N1CCC[C@H](N1)C(=O)OCC(C)(C)C2 [Example A259]	1000 to 10000 nM	100 to 1000 nM	100 to 1000 nM	100 to 1000 nM	100 to 1000 nM	100 to 1000 nM	100 to 1000 nM	1000 to 10000 nM	100 to 1000 nM	–	–	–	–	–	–	–	–	1000 to 10000 nM
CCn1c(-c2cccnc2[C@H](C)OC)c2c3cc(ccc31)-c1csc(n1)C[C@H](NC(=O)[C@H](C(C)C)N(C)C(=O)N1CCN(C)C3(CC3)C1)C(=O)N1CCC[C@H](N1)C(=O)OCC(C)(C)C2 [Example A311]	10 to 100 nM	100 to 1000 nM	100 to 1000 nM	100 to 1000 nM	100 to 1000 nM	100 to 1000 nM	100 to 1000 nM	100 to 1000 nM	100 to 1000 nM	–	–	–	–	–	–	–	–	100 to 1000 nM
